The record followed here is PubChem BioAssay (NCI).

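Cultured in 96-well plates, cells were exposed to test compound for 48 hours across five concentrations. GI50 is the concentration that inhibits growth by half. TGI marks complete inhibition of growth.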 Some results are limits rather than exact numbers.

For one test, the system named is SN12C renal. Briefly: DTP human tumour cell line panel, 48 h.
By TGI is commonly meant the concentration at which net growth stops. A higher TGI goes with lower sensitivity of the cells. `O=C(/C=C/c1ccc(O)c(O)c1)OCC(OC(=O)/C=C/c1ccc(O)c(O)c1)C(=O)O` (stereo unspecified) had a TGI above 100 µM.
`COc1ccc(CC2COc3cc(OC)cc(OC)c3C2=O)cc1` (stereo unspecified) returned a TGI above 100 µM.
In turn, `COc1ccc(-c2c(C(C)=O)c(-c3ccccc3)n(C3OC(CO)C(O)C(O)C3O)c(=S)c2C#N)cc1` (stereo unspecified) had a TGI above 100 µM.
Consider `O=C1C2=Cc3ccccc3OC2(O)Oc2cc3ccccc3cc21` (stereo unspecified), for which the total growth inhibition concentration (TGI) is above 100 µM.

Another test relates to SNB-75 CNS. Description: DTP human tumour cell line panel, 48 h.
On to `Clc1ccc(CCN(CCc2ccc(Cl)c(Cl)c2)CCN2CCCC2)cc1Cl`, for which the total growth inhibition concentration (TGI) is 4.73 µM.
The molecule `CC(C)(C)C1=C(Br)C(C(C)(C)C)OP1(=O)O` (stereo unspecified) yielded a TGI above 100 µM.
The molecule `Cc1cccc(Cl)c1NCC(O)CN1CCN(C)CC1` (stereo unspecified) gave a TGI above 100 µM.
Take `ONC1=Nc2cc(Cl)ccc2C(=S)N2CSCC12` (stereo unspecified): the TGI is above 100 µM.
Molecule `CC(C)NC(=O)OCc1c2c(n(C)c1COC(=O)NC(C)C)-c1cc(Cl)c(Cl)cc1CC2` had a TGI of 81.7 µM.
On the same count and under the same terms, as for `CNC1(c2cc3ccccc3s2)CCCCC1`, the figure is 99.3 µM.
Molecule `CNc1ncccc1Nc1cc(=O)n2c3cccnc3n(C)c2c1` yielded a concentration for total growth inhibition (TGI) of 78.1 µM.
The molecule `CC(C)CCNC(=O)c1ccc(CNC(=O)/C=C/c2cccc(Oc3ccccc3)c2)cc1` displayed a TGI above 100 µM.
On to `COc1ccc2nc(N/N=C/c3sccc3C)cc(C)c2c1`, for which the TGI amounted to 37.1 µM.
In the case of `O=c1[nH]c2cc(C(F)(F)F)ccc2nc1C(F)(F)F`, the TGI was found to be 93.6 µM.
On to `O=C1/C(=C\c2ccc([N+](=O)[O-])cc2)N(S(=O)(=O)c2ccccc2)c2ncccc21`, for which the concentration for total growth inhibition (TGI) came out at 43.1 µM.
Consider `C=CCCON(C(=O)OC(C)(C)C)c1ccccc1`, for which the concentration for total growth inhibition (TGI) is above 100 µM.
Molecule `Nc1cc([N+](=O)[O-])ccc1C(=O)N1CCC[C@H]1CO` came in with a concentration for total growth inhibition (TGI) above 100 µM.
On to `CCOC(=O)Nc1cc2c(c(N)n1)N=C(c1ccc(OC)cc1)CN2`, for which the concentration for total growth inhibition (TGI) was 0.277 µM.
Consider `C#CCn1c(=O)c(I)cn(/C(=C/C(=O)OCC)C(=O)OCC)c1=O`, for which the TGI came to 31.2 µM.
`O=C(/C=C/c1ccc(O)c(O)c1)OCC(OC(=O)/C=C/c1ccc(O)c(O)c1)C(=O)O` (stereo unspecified): the TGI was above 100 µM.
Molecule `O=C1C2=Cc3ccccc3OC2(O)Oc2cc3ccccc3cc21` (stereo unspecified) registered a concentration for total growth inhibition (TGI) of 73.2 µM.

The subject of another test is SR leukemia. Description: DTP human tumour cell line panel, 48 h.
Molecule `Cc1cccc(Cl)c1NCC(O)CN1CCN(C)CC1` (stereo unspecified) returned a TGI above 100 µM.
On the same count and under the same terms, for `ONC1=Nc2cc(Cl)ccc2C(=S)N2CSCC12` (stereo unspecified) the value was above 100 µM; for `CC(C)NC(=O)OCc1c2c(n(C)c1COC(=O)NC(C)C)-c1cc(Cl)c(Cl)cc1CC2`, above 100 µM.
Consider `CNC1(c2cc3ccccc3s2)CCCCC1`, for which the concentration for total growth inhibition (TGI) is 67.3 µM.
Take `CNc1ncccc1Nc1cc(=O)n2c3cccnc3n(C)c2c1`: the TGI was above 100 µM.
For `CC(C)CCNC(=O)c1ccc(CNC(=O)/C=C/c2cccc(Oc3ccccc3)c2)cc1`, the total growth inhibition concentration (TGI) was above 100 µM.
Consider `O=c1[nH]c2cc(C(F)(F)F)ccc2nc1C(F)(F)F`, for which the TGI is above 100 µM.
The molecule `O=C1/C(=C\c2ccc([N+](=O)[O-])cc2)N(S(=O)(=O)c2ccccc2)c2ncccc21` yielded a concentration for total growth inhibition (TGI) of 20.8 µM.
Still for that read-out and setting: as for `Nc1cc([N+](=O)[O-])ccc1C(=O)N1CCC[C@H]1CO`, the figure is above 100 µM; as for `O=C(/C=C/c1ccc(O)c(O)c1)OCC(OC(=O)/C=C/c1ccc(O)c(O)c1)C(=O)O` (stereo unspecified), above 100 µM; as for `COc1ccc(CC2COc3cc(OC)cc(OC)c3C2=O)cc1` (stereo unspecified), 43.2 µM.
`O=C1C2=Cc3ccccc3OC2(O)Oc2cc3ccccc3cc21` (stereo unspecified) gave a TGI above 100 µM.

Another test relates to SW-620 colon. Briefly: DTP human tumour cell line panel, 48 h.
On to `Cc1cccc(Cl)c1NCC(O)CN1CCN(C)CC1` (stereo unspecified), for which the TGI was above 100 µM.
The molecule `ONC1=Nc2cc(Cl)ccc2C(=S)N2CSCC12` (stereo unspecified) gave a TGI above 100 µM.
On to `CC(C)NC(=O)OCc1c2c(n(C)c1COC(=O)NC(C)C)-c1cc(Cl)c(Cl)cc1CC2`, for which the TGI is above 100 µM.
The molecule `CNC1(c2cc3ccccc3s2)CCCCC1` showed a total growth inhibition concentration (TGI) above 100 µM.
In turn, `CNc1ncccc1Nc1cc(=O)n2c3cccnc3n(C)c2c1` came in with a TGI above 100 µM.
As to `CC(C)CCNC(=O)c1ccc(CNC(=O)/C=C/c2cccc(Oc3ccccc3)c2)cc1`, the concentration for total growth inhibition (TGI) was above 100 µM.
For `COc1ccc2nc(N/N=C/c3sccc3C)cc(C)c2c1`, the TGI came to 65 µM.
Consider `O=c1[nH]c2cc(C(F)(F)F)ccc2nc1C(F)(F)F`, for which the concentration for total growth inhibition (TGI) is above 100 µM.
`O=C1/C(=C\c2ccc([N+](=O)[O-])cc2)N(S(=O)(=O)c2ccccc2)c2ncccc21` returned a TGI of 34.2 µM.
`C=CCCON(C(=O)OC(C)(C)C)c1ccccc1` yielded a concentration for total growth inhibition (TGI) above 100 µM.
The same measure, in the same setting: for `Nc1cc([N+](=O)[O-])ccc1C(=O)N1CCC[C@H]1CO` the value was above 100 µM.
`C#CCn1c(=O)c(I)cn(/C(=C/C(=O)OCC)C(=O)OCC)c1=O` displayed a TGI of 4 µM.
In the case of `C[C@@H](C(=O)O)N1C(c2ccco2)=C(/C(C=O)=C\c2ccco2)C(=O)/C1=C\c1ccco1`, the TGI was above 100 µM.
In turn, `O=C(/C=C/c1ccc(O)c(O)c1)OCC(OC(=O)/C=C/c1ccc(O)c(O)c1)C(=O)O` (stereo unspecified) returned a TGI above 100 µM.
`COc1ccc(CC2COc3cc(OC)cc(OC)c3C2=O)cc1` (stereo unspecified) came in with a TGI above 100 µM.
Take `COc1ccc(-c2c(C(C)=O)c(-c3ccccc3)n(C3OC(CO)C(O)C(O)C3O)c(=S)c2C#N)cc1` (stereo unspecified): the TGI is above 100 µM.
`O=C1C2=Cc3ccccc3OC2(O)Oc2cc3ccccc3cc21` (stereo unspecified) showed a TGI above 100 µM.

For the next test, the system named is UACC-257 melanoma. Briefly: DTP human tumour cell line panel, 48 h.
On to `Clc1ccc(CCN(CCc2ccc(Cl)c(Cl)c2)CCN2CCCC2)cc1Cl`, for which the total growth inhibition concentration (TGI) worked out at 3.37 µM.
In turn, `CC(C)(C)C1=C(Br)C(C(C)(C)C)OP1(=O)O` (stereo unspecified) returned a total growth inhibition concentration (TGI) above 100 µM.
Regarding `Cc1cccc(Cl)c1NCC(O)CN1CCN(C)CC1` (stereo unspecified), the concentration for total growth inhibition (TGI) is above 100 µM.
The molecule `ONC1=Nc2cc(Cl)ccc2C(=S)N2CSCC12` (stereo unspecified) displayed a TGI above 100 µM.
`CC(C)NC(=O)OCc1c2c(n(C)c1COC(=O)NC(C)C)-c1cc(Cl)c(Cl)cc1CC2` displayed a TGI of 86.8 µM.
With `CNC1(c2cc3ccccc3s2)CCCCC1`, the TGI was 35.1 µM.
Same read-out and setting: as for `CNc1ncccc1Nc1cc(=O)n2c3cccnc3n(C)c2c1`, the figure is above 100 µM; as for `CC(C)CCNC(=O)c1ccc(CNC(=O)/C=C/c2cccc(Oc3ccccc3)c2)cc1`, above 100 µM; as for `COc1ccc2nc(N/N=C/c3sccc3C)cc(C)c2c1`, 32.3 µM.
In turn, `O=c1[nH]c2cc(C(F)(F)F)ccc2nc1C(F)(F)F` registered a TGI of 90.6 µM.
`O=C1/C(=C\c2ccc([N+](=O)[O-])cc2)N(S(=O)(=O)c2ccccc2)c2ncccc21` returned a TGI of 42.8 µM.
The same measure, in the same setting: as for `C=CCCON(C(=O)OC(C)(C)C)c1ccccc1`, the figure is above 100 µM; as for `Nc1cc([N+](=O)[O-])ccc1C(=O)N1CCC[C@H]1CO`, above 100 µM.
As usually defined, the GI50 is the concentration giving 50% growth inhibition. Consider `CCOC(=O)Nc1cc2c(c(N)n1)N=C(c1ccc(OC)cc1)CN2`, for which the GI50 was 12.9 µM and the TGI is 36.5 µM.
Take `C#CCn1c(=O)c(I)cn(/C(=C/C(=O)OCC)C(=O)OCC)c1=O`: the TGI was determined as 8.11 µM.
In the case of `C[C@@H](C(=O)O)N1C(c2ccco2)=C(/C(C=O)=C\c2ccco2)C(=O)/C1=C\c1ccco1`, the TGI was above 100 µM.
Same read-out and setting: for `O=C(/C=C/c1ccc(O)c(O)c1)OCC(OC(=O)/C=C/c1ccc(O)c(O)c1)C(=O)O` (stereo unspecified) the value was above 100 µM; for `COc1ccc(CC2COc3cc(OC)cc(OC)c3C2=O)cc1` (stereo unspecified), above 100 µM.
In turn, `COc1ccc(-c2c(C(C)=O)c(-c3ccccc3)n(C3OC(CO)C(O)C(O)C3O)c(=S)c2C#N)cc1` (stereo unspecified) returned a TGI above 100 µM.
On the same count and under the same terms, as for `O=C1C2=Cc3ccccc3OC2(O)Oc2cc3ccccc3cc21` (stereo unspecified), the figure is above 100 µM.
